Test results from patent US9512072B2, “Biodegradable computed tomography contrast agents” (Case Western Reserve University, priority 2013, dated 2016).

Test system: BALB/c mice
Assay: In vivo blood pool CT imaging on micro-CT scanner
Set-up: species or system mouse
Details: 350 mg-I/kg i.v.
Experimental: The polymeric contrast agents and the control contrast agent, iodixanol, were evaluated with BALB/c mice (18-22 g body weight, 6 mice per agent). All the mice were scanned on the same machine as the in vitro detection. The images were obtained at an x-ray voltage of 80 kVp, an anode current of 500 μA and an exposure time of 200 ms for every rotational steps (total rotation degree is 360 and rotation steps are 180). The field of view was […]. Images were reconstructed in a 1024 pixel×1024 pixel grid with a pixel size of 18 μm×18 μm. […]
CT values are expressed in Hounsfield Units (HU) and were obtained per organ by drawing volumetric regions of interest (RIOs). […] The average HU values and the standard deviation were calculated from the data with 3 ROIs per organ. The CT data was analyzed to determine the contrast enhancement of different agents at various time points post-injection. In vivo CT values of the regions of interest, such as heart, blood, liver and bladder, were measured to study the dynamic enhancement of different organs. […]
The effectiveness of the iodinated polydisulfides for in vivo contrast enhanced CT imaging was assessed in BALB/c mice (18-22 g body weight, 6 mice per agent) on a micro-CT scanner with iodixanol as a control agent. […]

Question: For `CC(=O)N(CC(O)CN(C(C)=O)c1c(I)c(C(=O)NCC(O)CO)c(I)c(C(=O)NCC(O)CO)c1I)c1c(I)c(C(=O)NCC(O)CO)c(I)c(C(=O)NCC(O)CO)c1I` (centres unmarked) [iodixanol], which “vascular enhancement and delineation” value (10 min after injection) is on record?
Answer: did not produce any enhancement

Question: What about the “blood signal at its peak” value (pre-injection 27±30 HU) of the same compound?
Answer: 56±26 HU
